Laboratory results published in article PMC3766423 (Cancer research, 2013).

Target: WRN helicase (Werner syndrome protein) (Homo sapiens, UniProt Q14191)
Assay: in vitro WRN helicase
Type: biochemical

Sequence of WRN helicase (Werner syndrome protein) (Q14191 2-1432): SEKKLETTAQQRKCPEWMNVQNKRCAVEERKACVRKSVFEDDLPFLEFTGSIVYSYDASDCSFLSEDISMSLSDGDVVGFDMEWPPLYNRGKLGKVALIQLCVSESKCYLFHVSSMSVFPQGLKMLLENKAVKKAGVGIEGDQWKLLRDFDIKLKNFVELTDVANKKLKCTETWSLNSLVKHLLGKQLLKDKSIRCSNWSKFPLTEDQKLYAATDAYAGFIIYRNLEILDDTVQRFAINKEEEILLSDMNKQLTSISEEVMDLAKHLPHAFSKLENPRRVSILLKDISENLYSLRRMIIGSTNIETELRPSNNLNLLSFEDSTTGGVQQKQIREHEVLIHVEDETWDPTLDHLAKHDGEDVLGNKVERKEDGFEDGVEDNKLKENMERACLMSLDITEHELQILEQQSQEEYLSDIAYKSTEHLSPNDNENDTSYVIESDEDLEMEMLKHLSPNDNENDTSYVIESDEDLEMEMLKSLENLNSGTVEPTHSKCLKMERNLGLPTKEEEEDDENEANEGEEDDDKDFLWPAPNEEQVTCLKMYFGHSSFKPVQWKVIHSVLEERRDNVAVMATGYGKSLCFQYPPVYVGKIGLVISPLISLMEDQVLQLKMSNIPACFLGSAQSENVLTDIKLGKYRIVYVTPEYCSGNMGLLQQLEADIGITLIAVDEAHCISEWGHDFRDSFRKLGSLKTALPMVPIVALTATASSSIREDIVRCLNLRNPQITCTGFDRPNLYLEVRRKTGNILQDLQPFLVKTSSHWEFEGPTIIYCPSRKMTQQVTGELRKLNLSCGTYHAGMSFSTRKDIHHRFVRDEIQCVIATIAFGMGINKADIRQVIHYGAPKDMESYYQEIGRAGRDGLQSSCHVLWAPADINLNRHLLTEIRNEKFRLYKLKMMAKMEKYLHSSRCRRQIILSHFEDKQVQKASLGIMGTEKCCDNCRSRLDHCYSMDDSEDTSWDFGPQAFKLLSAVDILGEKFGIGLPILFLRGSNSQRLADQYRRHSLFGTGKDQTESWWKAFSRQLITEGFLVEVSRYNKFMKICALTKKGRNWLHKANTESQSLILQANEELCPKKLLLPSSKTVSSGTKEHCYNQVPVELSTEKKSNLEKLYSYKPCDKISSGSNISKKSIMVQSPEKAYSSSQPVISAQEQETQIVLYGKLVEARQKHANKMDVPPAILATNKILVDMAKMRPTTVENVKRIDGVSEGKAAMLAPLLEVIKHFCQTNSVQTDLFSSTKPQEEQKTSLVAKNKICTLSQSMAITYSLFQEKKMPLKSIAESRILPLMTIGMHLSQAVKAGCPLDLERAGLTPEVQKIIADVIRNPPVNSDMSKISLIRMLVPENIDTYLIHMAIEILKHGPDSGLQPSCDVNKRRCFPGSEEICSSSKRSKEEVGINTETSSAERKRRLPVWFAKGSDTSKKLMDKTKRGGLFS

CC(C)(CN1C(=O)C(Cl)=C(Cl)C1=O)CN1C(=O)C(Cl)=C(Cl)C1=O [NSC 617145]
IC50: 230 nM
